Experiment: recombinant UMI read abundance after kanamycin selection (control-corrected) (log10(CPM+1)); higher = more efficient recombination; extreme values may be limits of the assay; sequences stand for … in AGTGCAGAGAAAATCGGCCAGTTTTCTCTGCCTGCAGTCCGCATGCCGTGGGACCCCTTGGGTTCTAACCTGTTGCCTAGATTTATGCAGCGGACTGCCTTTCTCCCAAAGTGATAAACCGG…AGGTTGGTTTCACT; site = the 11-nt donor
Procedure: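 Pooled E. coli donor-specificity screen for the IS621 bridge recombinase. Each library member carries a reprogrammed 11-nt donor and a full-length LE bridge RNA expressed in cis from the natural promoter, with a paired donor-binding loop (8-nt LDG + 4-nt RDG) and a target-binding loop fixed to T5. It is co-electroporated with a T5 target plasmid; recombinase is induced with 0.07 mM IPTG and recombinants are selected on kanamycin. UMIs are counted as CPM, averaged over two biological replicates and corrected by the unselected control. Molecule = full bridge RNA written as DNA, built from the T5 scaffold: LDG = donor specificity nt 1-8, RDG = reverse complement of nt 8-11.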
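Also: IS621 bridge recombinase in Escherichia coli cells against a fixed T5 target plasmid.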

| Sequence | recombinant UMI read abundance (log10) |
| --- | --- |
| AAGCATACATGGACCGGTTTTCCCGGTAATCCGTATTTGAC (site AAGCATACTGT) | 2.88 |
| AAGCCCGCATGGACCGGTTTTCCCGGTAATCCGTATTTGGG (site AAGCACGCTCC) | 0.00486 |
| AAGCCCGCATGGACCGGTTTTCCCGGTAATCCGTATTTGGG (site AAGCCCGCTCC) | 0.0203 |
| AAGCCCGCATGGACCGGTTTTCCCGGTAATCCGTATTTGGG (site AAGCGCGCTCC) | 0.0392 |
| AAGCCCGCATGGACCGGTTTTCCCGGTAATCCGTATTTGGG (site AAGCTCGCTCC) | 0.0406 |
| AAGCCGGCATGGACCGGTTTTCCCGGTAATCCGTATTTGGC (site AAGCCGGCTGC) | 0 |
| AAGCGCTCATGGACCGGTTTTCCCGGTAATCCGTATTTGCG (site AAGCGCTCTCG) | 2.26 |
| AAGGAAACATGGACCGGTTTTCCCGGTAATCCGTATTTGCA (site AAGGAAACTTG) | 2.06 |
| AAGGAATCATGGACCGGTTTTCCCGGTAATCCGTATTTGCG (site AAGGAATCTCG) | 3.14 |
| AAGGAATCATGGACCGGTTTTCCCGGTAATCCGTATTTGCG (site CAGGAATCTCG) | 2.38 |
| AAGGAATCATGGACCGGTTTTCCCGGTAATCCGTATTTGCG (site GAGGAATCTCG) | 2.74 |
| AAGGAATCATGGACCGGTTTTCCCGGTAATCCGTATTTGCG (site TAGGAATCTCG) | 3.08 |
| AAGGACTCATGGACCGGTTTTCCCGGTAATCCGTATTTGTT (site AAGGACTCTAA) | 2.9 |
| AAGGAGCCATGGACCGGTTTTCCCGGTAATCCGTATTTGGG (site AAGGAGCCTCC) | 0.00843 |
| AAGGATGCATGGACCGGTTTTCCCGGTAATCCGTATTTGTG (site AAGGATGCTCA) | 2.3 |
| AAGGCGACATGGACCGGTTTTCCCGGTAATCCGTATTTGGA (site AAGGCGACTTC) | 0.0223 |
| AAGGGCCCATGGACCGGTTTTCCCGGTAATCCGTATTTGGC (site AAGGGCCCTGC) | 0.674 |
| AAGGGGTCATGGACCGGTTTTCCCGGTAATCCGTATTTGAT (site AAGGGGTCTAT) | 2.94 |
| AAGGGTTCATGGACCGGTTTTCCCGGTAATCCGTATTTGTC (site AAGGGTTCTGA) | 2.5 |

| Sequence | recombinant UMI read abundance (log10) |
| --- | --- |
| AAGGTTGCATGGACCGGTTTTCCCGGTAATCCGTATTTGCA (site AAGGTTGCTTG) | 2.22 |
| AAGTAACCATGGACCGGTTTTCCCGGTAATCCGTATTTGGA (site AAGTAACCTTC) | 0.105 |
| AAGTACGCATGGACCGGTTTTCCCGGTAATCCGTATTTGGG (site AAGAACGCTCC) | 0.14 |
| AAGTACGCATGGACCGGTTTTCCCGGTAATCCGTATTTGGG (site AAGCACGCTCC) | 0.0289 |
| AAGTACGCATGGACCGGTTTTCCCGGTAATCCGTATTTGGG (site AAGGACGCTCC) | 0.492 |
| AAGTACGCATGGACCGGTTTTCCCGGTAATCCGTATTTGGG (site AAGTACGCTCC) | 0.423 |
| AAGTCCACATGGACCGGTTTTCCCGGTAATCCGTATTTGCT (site AAGTCCACTAG) | 1.56 |
| AAGTTACCATGGACCGGTTTTCCCGGTAATCCGTATTTGAC (site AAGTTACCTGT) | 0 |
| AATAGCCCATGGACCGGTTTTCCCGGTAATCCGTATTTGAC (site AATAGCCCTGT) | 1.07 |
| AATAGTGCATGGACCGGTTTTCCCGGTAATCCGTATTTGAG (site AATAGTGCTCT) | 1.4 |
| AATATAGCATGGACCGGTTTTCCCGGTAATCCGTATTTGCC (site AATATAGCTGG) | 1.53 |
| AATATGACATGGACCGGTTTTCCCGGTAATCCGTATTTGTG (site AATATGACTCA) | 0.774 |
| AATCACCCATGGACCGGTTTTCCCGGTAATCCGTATTTGCT (site AATCACCCTAG) | 0.532 |
| AATCATACATGGACCGGTTTTCCCGGTAATCCGTATTTGGT (site AATCATACTAC) | 0.556 |
| AATCTCACATGGACCGGTTTTCCCGGTAATCCGTATTTGCT (site AATCTCACTAG) | 1.64 |
| AATCTCCCATGGACCGGTTTTCCCGGTAATCCGTATTTGCT (site AATCTCCCTAG) | 0.736 |
| AATGAGTCATGGACCGGTTTTCCCGGTAATCCGTATTTGAC (site AATGAGTCTGT) | 3.25 |
| AATGAGTCATGGACCGGTTTTCCCGGTAATCCGTATTTGAC (site AATGCGTCTGT) | 0 |
| AATGAGTCATGGACCGGTTTTCCCGGTAATCCGTATTTGAC (site AATGGGTCTGT) | 0 |

| Sequence | recombinant UMI read abundance (log10) |
| --- | --- |
| AATGAGTCATGGACCGGTTTTCCCGGTAATCCGTATTTGAC (site AATGTGTCTGT) | 0.822 |
| AATGAGTCATGGACCGGTTTTCCCGGTAATCCGTATTTGAT (site AATGAGTCTAT) | 2.52 |
| AATGATCCATGGACCGGTTTTCCCGGTAATCCGTATTTGCG (site AATGATCCTCG) | 0.677 |
| AATGGCCCATGGACCGGTTTTCCCGGTAATCCGTATTTGTA (site AATGGCCCTTA) | 0.0128 |
| AATGTAACATGGACCGGTTTTCCCGGTAATCCGTATTTGAT (site AATGTAACTAA) | 0.00583 |
| AATGTAACATGGACCGGTTTTCCCGGTAATCCGTATTTGAT (site AATGTAACTAC) | 0.00741 |
| AATGTAACATGGACCGGTTTTCCCGGTAATCCGTATTTGAT (site AATGTAACTAG) | 0.00602 |
| AATGTAACATGGACCGGTTTTCCCGGTAATCCGTATTTGAT (site AATGTAACTAT) | 2.15 |
| AATGTAACATGGACCGGTTTTCCCGGTAATCCGTATTTGCA (site AATGTAACTAG) | 0 |
| AATGTAACATGGACCGGTTTTCCCGGTAATCCGTATTTGCA (site AATGTAACTCG) | 0.0207 |
| AATGTAACATGGACCGGTTTTCCCGGTAATCCGTATTTGCA (site AATGTAACTGG) | 0 |
| AATGTAACATGGACCGGTTTTCCCGGTAATCCGTATTTGCA (site AATGTAACTTG) | 1.78 |
| AATGTAACATGGACCGGTTTTCCCGGTAATCCGTATTTGCC (site AATGTAACTAG) | 0 |
| AATGTAACATGGACCGGTTTTCCCGGTAATCCGTATTTGCC (site AATGTAACTCG) | 0 |
| AATGTAACATGGACCGGTTTTCCCGGTAATCCGTATTTGCC (site AATGTAACTGG) | 2.15 |
| AATGTAACATGGACCGGTTTTCCCGGTAATCCGTATTTGCC (site AATGTAACTTG) | 1.34 |
| AATGTAACATGGACCGGTTTTCCCGGTAATCCGTATTTGGT (site AATGTAACTAA) | 0.557 |
| AATGTAACATGGACCGGTTTTCCCGGTAATCCGTATTTGGT (site AATGTAACTAC) | 1.36 |
| AATGTAACATGGACCGGTTTTCCCGGTAATCCGTATTTGGT (site AATGTAACTAG) | 0 |
